The results in this text go back to US20150098997A1, “Methods and Compositions for Treating Attention Deficit Hyperactivity Disorder, Anxiety and Insomnia Using Dexmedetomidine Transdermal Compositions” (Teikoku Pharma USA, Inc., priority 2013, published 2015).

The series is described as follows: Solubility of dexmedetomidine in adhesives and solubility enhancers. Format: physicochemical.

`Cc1cccc([C@H](C)c2cnc[nH]2)c1C` [dexmedetomidine, Dexmedetomidine]: the solubility of dexmedetomidine result runs as follows: (in Duro-Tak 87-2979 (acid/hydroxyl functionalized acrylate adhesive)) “less than 2%”; (in Duro-Tak 387/87-2353 (acid functionalized acrylate adhesive)) 10-15%; (in hydroxyl functionalized acrylate polymer) “less than 1%”; (in lauryl lactate) 5 to 10%; (in levulinic acid) roughly 60%; (in oleic acid) roughly 40%. For the same compound, for the setting “in propylene glycolmonolaurate”, the solubility of dexmedetomidine is reported as 5 to 10%.
